Results reported in patent US20030161871A1, “Solubilized riboflavin” (priority 2001, published 2003).
≈ marks a conversion by molar mass, not a printed value. Read-outs that look alike come from different tables or passages of the source.

Legend:
[1] = Solubilization of lumichrome in the FMN formulation; assay type: physicochemical
[2] = Solubility of riboflavin as a function of pH and % FMN; assay type: physicochemical; conditions: for solubility thermodynamic: thermodynamic from solid
Text: The equilibrium solubility of riboflavin is approximately 70 mcg/ml (see plot below with no FMN present). Precipitation is expected to occur if riboflavin reaches a level above this (due to riboflavin in drug substance or due to degradation to riboflavin with time), and precipitation would be unacceptable for patient safety with intravenous use.
Solubility of Riboflavin as a function of pH and % FMN [formula]
At 1% FMN, up to 365 mcg/ml of riboflavin can dissolve.

SMILES | solubility of lumichrome in the current formulation [1] | solubility thermodynamic ([2]; 1% FMN solution, aqueous with cosolvent or surfactant or cyclodextrin, read-out: riboflavin that can dissolve (equilibrium solubility)) [µg/mL] | solubility thermodynamic ([2]; 5% FMN solution, aqueous with cosolvent or surfactant or cyclodextrin, 5% FMN, pH 7-8, read-out: riboflavin that can dissolve (equilibrium solubility)) [µg/mL] | equilibrium solubility of riboflavin ([2]; no FMN present) | solubility thermodynamic ([2]; no FMN present, read-out: equilibrium solubility of riboflavin) [µg/mL]
Cc1cc2nc3[nH]c(=O)[nH]c(=O)c3nc2cc1C [lumichrome] | dissolve at levels above the equilibrium solubility | – | – | – | –
Cc1cc2nc3c(=O)[nH]c(=O)nc-3n(C[C@H](O)[C@H](O)[C@H](O)CO)c2cc1C [riboflavin] | – | ≤ 365 | ≤ 1320 | approximately 70 mcg/ml | ~70 (≈ 186 µM)
